Several values for one entry are separate records, joined by “and”; a condition that tells them apart may be missing. Equal entries are not always repeated. ± gives the uncertainty stated by the source.
Assay: xn = mol fraction of the nth substance listed

CCCCOC(C)=O + C1CCCCC1
viscosity [mPa·s], 101 kPa
Conditions	298.15 K	308.15 K
x1 = 0.0561	0.854 ± 0.086	0.723 ± 0.073
x1 = 0.156	0.801 ± 0.081	0.676 ± 0.068
x1 = 0.2818	0.749 ± 0.075	0.631 ± 0.063
x1 = 0.4867	0.693 ± 0.07	0.585 ± 0.059
x1 = 0.4963	0.691 ± 0.069	0.584 ± 0.059
x1 = 0.5327	0.685 ± 0.069	0.579 ± 0.058
x1 = 0.5738	0.678 ± 0.068	0.575 ± 0.058
x1 = 0.6816	0.667 ± 0.067	0.568 ± 0.057
x1 = 0.7552	0.663 ± 0.067	0.568 ± 0.057
x1 = 0.8686	0.663 ± 0.067	0.575 ± 0.058
x1 = 0.9568	0.669 ± 0.067	0.586 ± 0.059

CCCN + C1CCCCC1
viscosity, 101 kPa
Conditions	x1 = 0.00761	x1 = 0.01688	x1 = 0.02821	x1 = 0.03652	x1 = 0.04831	x1 = 0.05697	x1 = 0.06516	x1 = 0.07467	x1 = 0.08588
303.15 K	0.8113 ± 0.0056 mPa·s	0.8039 ± 0.0055 mPa·s	0.7953 ± 0.0055 mPa·s	0.789 ± 0.0055 mPa·s	0.7803 ± 0.0054 mPa·s	0.7736 ± 0.0054 mPa·s	0.7669 ± 0.0053 mPa·s	0.7583 ± 0.0053 mPa·s	0.7506 ± 0.0053 mPa·s
313.15 K	0.7093 ± 0.005 mPa·s and 0.6999 ± 0.005 mPa·s	0.6903 ± 0.0049 mPa·s	0.6849 ± 0.0049 mPa·s	0.6772 ± 0.0049 mPa·s	0.67 ± 0.0048 mPa·s	0.6638 ± 0.0048 mPa·s	0.6564 ± 0.0048 mPa·s	0.6488 ± 0.0047 mPa·s	–

Oc1ccccc1Cl + C1CCCCC1
viscosity [mPa·s], 303.15 K
Conditions	x2 = 0.1078	x2 = 0.2025	x2 = 0.3072	x2 = 0.4048	x2 = 0.6046	x2 = 0.6564	x2 = 0.7542	x2 = 0.8969
101 kPa	2.275 ± 0.034	1.996 ± 0.03	1.622 ± 0.025	1.331 ± 0.02	1.032 ± 0.016	0.981 ± 0.015	0.881 ± 0.013	0.795 ± 0.012
101.33 kPa	2.275 ± 0.059	1.996 ± 0.052	1.622 ± 0.042	1.331 ± 0.034	1.032 ± 0.027	0.981 ± 0.025	0.881 ± 0.023	0.794 ± 0.021

CCCCOC(C)=O + C1COCCO1
303.15 K, 101.3 kPa
Conditions	viscosity [mPa·s]
x2 = 0.1002	0.6618 ± 0.0045
x2 = 0.1988	0.682 ± 0.0046
x2 = 0.2997	0.7051 ± 0.0047
x2 = 0.3963	0.7333 ± 0.0048
x2 = 0.4977	0.7684 ± 0.005
x2 = 0.6024	0.809 ± 0.0052
x2 = 0.7009	0.859 ± 0.0055
x2 = 0.7968	0.9174 ± 0.0058
x2 = 0.9016	0.9976 ± 0.0063

Oc1ccccc1Cl + C1COCCO1
101 kPa
Conditions	viscosity [mPa·s]
298.15 K, x1 = 0.2	1.965 ± 0.12
298.15 K, x1 = 0.4	3.235 ± 0.064
298.15 K, x1 = 0.6	5.018 ± 0.05
298.15 K, x1 = 0.8	5.556 ± 0.085
308.15 K, x2 = 0.1	2.996 ± 0.037
308.15 K, x2 = 0.2	3.489 ± 0.043
308.15 K, x2 = 0.4	3.32 ± 0.041
308.15 K, x2 = 0.5	2.866 ± 0.035
308.15 K, x2 = 0.6	2.311 ± 0.029
308.15 K, x2 = 0.7	1.849 ± 0.023
308.15 K, x2 = 0.8	1.478 ± 0.019
308.15 K, x2 = 0.9	1.182 ± 0.015

CCCN + C=C(C)C(=O)OC
303.15 K, 101 kPa
Conditions	viscosity [mPa·s]
x2 = 0.1506	0.382 ± 0.0051
x2 = 0.3776	0.4355 ± 0.0054
x2 = 0.5053	0.4623 ± 0.0055
x2 = 0.6058	0.4809 ± 0.0056
x2 = 0.8285	0.5081 ± 0.0057

CCCCOC(C)=O + CC#N
303.15 K, 101.33 kPa
Conditions	viscosity [mPa·s]
x2 = 0.0981	0.6208 ± 0.0044
x2 = 0.2003	0.5981 ± 0.0043
x2 = 0.3003	0.5737 ± 0.0042
x2 = 0.403	0.5485 ± 0.0041
x2 = 0.5026	0.5195 ± 0.004
x2 = 0.5972	0.4884 ± 0.0039
x2 = 0.6977	0.4463 ± 0.0037
x2 = 0.7987	0.4071 ± 0.0035
x2 = 0.8985	0.3669 ± 0.0034

CCCOC(=O)c1ccccc1 + CC#N
viscosity [mPa·s], 101.33 kPa
Conditions	x1 = 0.127	x1 = 0.247	x1 = 0.362	x1 = 0.467	x1 = 0.567	x1 = 0.658	x1 = 0.748	x1 = 0.842	x1 = 0.928
293.15 K	0.439 ± 0.005	0.48 ± 0.005	0.544 ± 0.005	0.614 ± 0.006	0.755 ± 0.006	0.879 ± 0.007	1.113 ± 0.008	1.522 ± 0.009	2.048 ± 0.012
303.15 K	0.397 ± 0.005	0.43 ± 0.005	0.484 ± 0.005	0.54 ± 0.005	0.654 ± 0.006	0.749 ± 0.006	0.929 ± 0.007	1.237 ± 0.008	1.609 ± 0.01
313.15 K	0.362 ± 0.005	0.386 ± 0.005	0.431 ± 0.005	0.479 ± 0.005	0.57 ± 0.005	0.652 ± 0.006	0.786 ± 0.006	1.025 ± 0.007	1.307 ± 0.008
323.15 K	0.326 ± 0.005	0.346 ± 0.005	0.386 ± 0.005	0.424 ± 0.005	0.499 ± 0.005	0.564 ± 0.005	0.67 ± 0.006	0.853 ± 0.006	1.075 ± 0.007

Clc1ccccc1Cl + CC#N
308.15 K, 101 kPa
Conditions	viscosity [mPa·s]
x1 = 0.1003	0.3803 ± 0.0088
x1 = 0.2063	0.4569 ± 0.01
x1 = 0.3069	0.5299 ± 0.011
x1 = 0.4058	0.6077 ± 0.013
x1 = 0.4918	0.676 ± 0.014
x1 = 0.5925	0.7617 ± 0.016
x1 = 0.6956	0.8443 ± 0.017
x1 = 0.7945	0.9395 ± 0.019
x1 = 0.9016	1.027 ± 0.021

[O-][Cl+3]([O-])([O-])O + CC(=O)O
viscosity [mPa·s], 101 kPa
Conditions	x1 = 0.2029	x1 = 0.3254	x1 = 0.4484	x1 = 0.5117
293.15 K	0.2653 ± 0.007	0.6193 ± 0.016	0.4081 ± 0.011	0.2388 ± 0.0064
308.15 K	0.1146 ± 0.0032	0.2603 ± 0.0073	0.1883 ± 0.0052	0.1226 ± 0.0033
323.15 K	–	0.1268 ± 0.0039	–	–

CC(C)c1ccccc1 + CC(C)(C)O
viscosity [mPa·s], 101 kPa
Conditions	x2 = 0.0995	x2 = 0.2007	x2 = 0.3001	x2 = 0.3998	x2 = 0.5009	x2 = 0.6007	x2 = 0.7002	x2 = 0.8005	x2 = 0.9002
303.15 K	0.6893 ± 0.0055	0.7128 ± 0.0055	0.7481 ± 0.0056	0.7954 ± 0.0058	0.8754 ± 0.0061	0.9692 ± 0.0066	1.129 ± 0.0075	1.415 ± 0.0091	1.874 ± 0.013
308.15 K	0.6458 ± 0.0052	0.6665 ± 0.0052	0.6941 ± 0.0053	0.7344 ± 0.0054	0.8007 ± 0.0057	0.8782 ± 0.006	1.007 ± 0.0067	1.232 ± 0.0079	1.578 ± 0.0099
313.15 K	0.6059 ± 0.0049	0.6215 ± 0.0049	0.6451 ± 0.0049	0.6782 ± 0.005	0.7352 ± 0.0053	0.798 ± 0.0055	0.9019 ± 0.0061	1.08 ± 0.007	1.343 ± 0.0085
318.15 K	0.5703 ± 0.0047	0.5814 ± 0.0046	0.6002 ± 0.0046	0.6279 ± 0.0047	0.6742 ± 0.0049	0.7269 ± 0.0051	0.8117 ± 0.0055	0.9531 ± 0.0063	1.153 ± 0.0074
323.15 K	0.537 ± 0.0044	0.5452 ± 0.0044	0.5604 ± 0.0044	0.5835 ± 0.0044	0.6218 ± 0.0046	0.6649 ± 0.0047	0.7349 ± 0.0051	0.8485 ± 0.0056	1.001 ± 0.0064

CCCN + CC(C)(C)O
298.15 K, 101 kPa
Conditions	viscosity [mPa·s]
x2 = 0.0967	0.512 ± 0.005
x2 = 0.2039	0.727 ± 0.007
x2 = 0.3012	0.969 ± 0.01
x2 = 0.4	1.263 ± 0.012
x2 = 0.4992	1.614 ± 0.016
x2 = 0.5874	1.975 ± 0.02
x2 = 0.6813	2.415 ± 0.024
x2 = 0.7999	3.09 ± 0.031
x2 = 0.9183	3.806 ± 0.04
